Laboratory results reported in paper PMC4546632, “Active Transport of Phosphorylated Carbohydrates Promotes Intestinal Colonization and Transmission of a Bacterial Pathogen” (PLoS Pathogens, 2015).
Like-named read-outs stand apart in the source and are kept apart here.

Tests used:
Details in all cases: 20 mM Tris pH 8, 100 mM NaCl
AfuA [1] = molecular target: AfuA (Actinobacillus pleuropneumoniae, UniProt A3N294, S64D)
AfuA [2] = molecular target: AfuA (Actinobacillus pleuropneumoniae, UniProt A3N294, S64A)
AfuA [3] = molecular target: AfuA (Actinobacillus pleuropneumoniae, UniProt A3N294, T177A)
C. rodentium AfuA = molecular target: T1, C. rodentium AfuA (Citrobacter rodentium, UniProt D2TKU7); experiment: isothermal titration calorimetry; format: binding
T1 construct: recombinant AfuA; construct details only in supplement
From the text: isothermal titration calorimetry on C. rodentium AfuA | These amounts exceed the Kd of C. rodentium AfuA for G6P or F6P

AfuA [4] = molecular target: T2, AfuA (Actinobacillus pleuropneumoniae, UniProt A3N294); experiment: isothermal titration calorimetry; format: binding
T2 construct: pET26b, periplasmic expression in E. coli (osmotic shock), N-terminal 6xHis tag cleaved by thrombin
From the text: isothermal titration calorimetry on AfuA

T2 sequence (A3N294 entry or part of it): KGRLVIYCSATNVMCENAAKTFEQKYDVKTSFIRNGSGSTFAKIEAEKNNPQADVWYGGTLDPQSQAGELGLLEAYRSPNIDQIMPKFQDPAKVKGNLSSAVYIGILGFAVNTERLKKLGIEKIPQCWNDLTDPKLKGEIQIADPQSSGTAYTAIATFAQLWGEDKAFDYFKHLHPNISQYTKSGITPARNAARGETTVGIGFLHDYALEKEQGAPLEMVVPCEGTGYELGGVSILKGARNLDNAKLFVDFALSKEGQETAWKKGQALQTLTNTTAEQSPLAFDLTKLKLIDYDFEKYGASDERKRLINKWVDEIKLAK
Chain of AfuA (Actinobacillus pleuropneumoniae, UniProt A3N294, S64D) (A3N294 28-346 S64D): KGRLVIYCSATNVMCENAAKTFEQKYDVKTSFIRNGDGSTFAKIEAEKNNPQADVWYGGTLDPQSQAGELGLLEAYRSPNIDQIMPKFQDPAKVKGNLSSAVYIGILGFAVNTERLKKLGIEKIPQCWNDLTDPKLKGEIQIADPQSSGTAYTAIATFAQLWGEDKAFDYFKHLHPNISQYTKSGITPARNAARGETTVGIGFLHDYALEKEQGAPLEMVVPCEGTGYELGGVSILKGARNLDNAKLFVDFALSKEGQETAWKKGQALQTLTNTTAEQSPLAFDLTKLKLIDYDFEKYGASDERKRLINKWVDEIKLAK
T1 sequence (D2TKU7 entry or part of it): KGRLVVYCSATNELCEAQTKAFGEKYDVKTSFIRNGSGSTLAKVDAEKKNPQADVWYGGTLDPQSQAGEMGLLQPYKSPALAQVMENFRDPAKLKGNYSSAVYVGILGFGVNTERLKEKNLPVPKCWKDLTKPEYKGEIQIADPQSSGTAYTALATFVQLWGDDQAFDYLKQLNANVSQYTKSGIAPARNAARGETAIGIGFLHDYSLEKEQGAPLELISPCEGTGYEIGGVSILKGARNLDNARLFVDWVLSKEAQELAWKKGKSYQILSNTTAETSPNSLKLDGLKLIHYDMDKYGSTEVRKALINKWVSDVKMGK
Chain of AfuA (Actinobacillus pleuropneumoniae, UniProt A3N294, T177A) (A3N294 28-346 T177A): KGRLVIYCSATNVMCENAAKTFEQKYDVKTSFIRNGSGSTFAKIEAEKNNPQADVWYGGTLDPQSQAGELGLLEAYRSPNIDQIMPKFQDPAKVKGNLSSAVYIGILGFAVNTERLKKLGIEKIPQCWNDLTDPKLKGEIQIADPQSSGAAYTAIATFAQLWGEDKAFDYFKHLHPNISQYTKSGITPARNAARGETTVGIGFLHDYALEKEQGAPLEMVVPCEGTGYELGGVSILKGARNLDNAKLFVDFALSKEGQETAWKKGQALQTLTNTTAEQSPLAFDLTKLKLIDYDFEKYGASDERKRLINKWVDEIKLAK
Chain of AfuA (Actinobacillus pleuropneumoniae, UniProt A3N294, S64A) (A3N294 28-346 S64A): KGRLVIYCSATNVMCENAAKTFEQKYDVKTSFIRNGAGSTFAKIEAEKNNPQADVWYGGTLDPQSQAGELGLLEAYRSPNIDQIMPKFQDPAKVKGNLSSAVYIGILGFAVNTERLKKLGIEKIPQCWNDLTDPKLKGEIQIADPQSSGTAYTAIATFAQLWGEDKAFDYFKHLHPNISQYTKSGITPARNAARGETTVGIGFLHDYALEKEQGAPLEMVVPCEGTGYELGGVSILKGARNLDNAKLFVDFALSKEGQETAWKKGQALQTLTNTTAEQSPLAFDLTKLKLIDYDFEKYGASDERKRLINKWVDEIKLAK

## O=P(O)(O)OC[C@H]1OC(O)[C@H](O)[C@@H](O)[C@@H]1O (some centres unmarked) [Glucose-6-phosphate]
AfuA [1]
  Kd: 5500 ± 900 nM
AfuA [2]
  Kd: 900 ± 100 nM
AfuA [3]
  Kd: 3300 ± 200 nM
C. rodentium AfuA
  Kd: 164 ± 94 nM
AfuA [4]; read-out: Kd
  Kd: 23 ± 4 nM

## O=P(O)(O)OC[C@H]1OC(O)[C@@H](O)[C@@H](O)[C@@H]1O (some centres unmarked) [Mannose-6-phosphate]
AfuA [4]; read-out: Kd
  Kd: 960 ± 150 nM

## O=P(O)(O)OC[C@H]1OC(O)(CO)[C@@H](O)[C@@H]1O (some centres unmarked) [Fructose-6-phosphate]
AfuA [4]; read-out: Kd
  Kd: 8 ± 1 nM

## O=P(O)(O)OC[C@@H](O)[C@H]1OC(O)(CO)[C@@H](O)[C@@H]1O (some centres unmarked) [Sedoheptulose-7-phosphate]
AfuA [4]
  Kd: 57 ± 22 nM
